In paper PMC7154665, “Triple‐Helix‐Stabilizing Effects in Collagen Model Peptides Containing PPII‐Helix‐Preorganized Diproline Modules” (Angewandte Chemie (International Ed. in English), 2020):

How the values were obtained:
[1] = biological target: T1, HSP47 (Canis lupus familiaris, UniProt A0A8I3N7V2); assay: HSP47 binding by biolayer interferometry (BLI); design: species or system canine; conditions: Table S7; BLI curve fitting; KD = koff/kon; errors by propagation of uncertainty; read-out: KD (with error)
T1 construct: coding for residues 36LSP…RDEL418; inferred from Ni-NTA purification with imidazole elution; made in house; host or cells: E. coli BL21 (DE3)
T1 sequence (A0A8I3N7V2 36-418): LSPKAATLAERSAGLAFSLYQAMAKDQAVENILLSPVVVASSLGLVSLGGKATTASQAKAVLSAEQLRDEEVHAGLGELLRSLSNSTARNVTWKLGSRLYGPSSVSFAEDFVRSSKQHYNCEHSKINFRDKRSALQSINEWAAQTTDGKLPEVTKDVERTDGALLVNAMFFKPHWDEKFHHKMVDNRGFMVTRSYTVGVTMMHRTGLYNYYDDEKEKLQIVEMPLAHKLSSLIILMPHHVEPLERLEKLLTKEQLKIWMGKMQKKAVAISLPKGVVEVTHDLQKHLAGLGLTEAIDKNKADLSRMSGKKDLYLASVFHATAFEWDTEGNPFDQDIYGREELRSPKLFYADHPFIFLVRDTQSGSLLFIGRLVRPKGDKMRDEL
From the text: (1 picture or pasted object on this page, not shown here) […]

[2] = CD thermal denaturation of collagen model peptide triple helices (transition temperature); format: physicochemical; conditions: for T m (figure legends and text) / T m of the corresponding CMPs: CD denaturation at 225 nm; for T m (figure legends and text): PBS-buffer, 12 °C h-1 heating rate, * substitution-site altered, ** arginine-free peptides; for T m of the corresponding CMPs: Table 2, CMP Ac‐(PPG)5‐PRG‐PPG‐[XY]G‐(PPG)3‐NH2, PBS, 12 °C h-1; for T m: triple-helix transition temperature, CD ellipticity at 225 nm, 60 µM peptide in PBS (10 mM Na2HPO4, 10 mM NaH2PO4, 150 mM NaCl, pH 7.0), 4 to 70 °C, heating rate 12 °C h-1, two-state fit, error ±1 °C
Description: For all prepared model peptides, CD spectra were recorded in phosphate‐buffered saline (after incubation for […] at 4 °C). […] The curves were fitted to assess triple‐helical stability by the transition temperature (T m, ±1 °C error) in a standardized fashion (see Table 1 and the Supporting Information). Selected denaturation curves are depicted in Figure 4.
CD spectra and Thermal Denaturation Experiments
Experimental setup - Vacuum-dried peptides were dissolved in phosphate-buffered saline (10 mM Na2HPO4, 10 mM NaH2PO4,
150 mM NaCl, pH = 7.0) and the solutions (60 µM peptide) were incubated at 4 °C for at least 48 h for trimerization. CD
measurements were performed on a Jasco J-715 spectropolarimeter using a quartz cuvette (Hellma Analytics, 1 mm path length) and
To study thermal transitions the ellipticity at 225 nm was monitored while increasing the temperature from 4 to
70 °C at a rather slow heating rate of 12 °C h-1 which was controlled electronically (Jasco PTC-348 WI Peltier element). According to
the literature this heating rate still corresponds to non-equilibrium conditions, however, the generated data can be used for internal
Data interpretation - For Tm-determination a two-state-model was employed in which three peptide chains combine to a triple helix
assuming a previously reported mathematical model (vide infra).[7][8] Constants were set (c = 0.00006, R = 8.31) and auxiliary
variables (P, U, V, K) were used to describe the temperature dependence of the folded fraction F. Thermal transition curves were
fitted by optimizing the parameters θmin, θmax, ΔH, and Tm using the Generalized Reduced Gradient algorithm implemented in the
solver tool of MS Excel.[9]. An error of ±1.0 °C was estimated for the resulting Tm values by repeating denaturation experiments.

Compound | T m (figure legends and text) [2] [°C] | T m [2] [°C] | further results
N=C(N)NCCC[C@H](NC(=O)[C@@H]1CCCN1C(=O)CNC(=O)[C@@H]1CCCN1C(=O)[C@@H]1CCCN1C(=O)CNC(=O)[C@@H]1CCCN1C(=O)[C@@H]1CCCN1C(=O)CNC(=O)[C@@H]1CCCN1C(=O)[C@@H]1CCCN1C(=O)CNC(=O)[C@@H]1CCCN1C(=O)[C@@H]1CCCN1C(=O)CNC(=O)[C@@H]1CCCN1C(=O)[C@@H]1CCCN1C(=O)CCC(=O)NCCOCCOCCNC(=O)CCCC[C@@H]1SC[C@@H]2NC(=O)N[C@@H]21)C(=O)NCC(=O)N1CCC[C@H]1C(=O)N1CCC[C@H]1C(=O)NCC(=O)N1CCC[C@H]1C(=O)N1CCC[C@H]1C(=O)NCC(=O)N1CCC[C@H]1C(=O)N1CCC[C@H]1C(=O)NCC(=O)N1CCC[C@H]1C(=O)N1CCC[C@H]1C(=O)NCC(=O)N1CCC[C@H]1C(=O)N1CCC[C@H]1C(=O)NCC(N)=O [PP] |  |  | Kd [1]: 0.3703 ± 0.0018 µM
COC(=O)[C@@H]1CC(O)CN1C(=O)[C@@H]1CCCN1C(C)=O (stereo partly drawn) [ProHyp] | 49.8 |  | T m of the corresponding CMPs [2]: 49.8 °C
Ac-PPG-PPG-PPG-PPG-PPG-PPG-PPG-PPG-PPG-PPG-PPG-NH2 [ProPro**] | 45.9 |  | 
Ac-PPG-PPG-PPG-PPG-PPG-PPG-PPG-[H2ProM2]G-PPG-PPG-PPG-NH2 [H2-ProM2**] | 44.4 |  | 
Ac-PPG-PPG-PPG-PPG-PPG-PRG-PPG-OOG-PPG-PPG-PPG-NH2 [HypHyp] | 46.9 |  | 
Ac-PPG-PPG-PPG-PPG-PPG-PRG-PPG-OPG-PPG-PPG-PPG-NH2 [HypPro] | 44.0 |  | 
Ac‐(EtO)2‐ProM1‐OMe | 44 |  | T m of the corresponding CMPs [2]: 44.5 °C
Ac‐(EtO)2‐ProM2‐OMe |  |  | T m of the corresponding CMPs [2]: 38.9 °C; ΔT m ([2]; with regard to the non‐functionalized system (ProM2 series)): −6 °C
Ac‐(PPG)3‐H2‐ProM2G‐PPG‐PRG‐(PPG)5‐NH2 [Entry 15] |  | 44.6 | 
Ac‐(PPG)3‐ProM1G‐PPG‐PRG‐(PPG)5‐NH2 [Entry 14] |  | 40.5 | 
Ac‐(PPG)5‐PRG‐PPG‐(EtO)2‐ProM1G‐(PPG)3‐NH2 [Entry 8] | 44.5 | 44.5 | 
Ac‐(PPG)5‐PRG‐PPG‐(EtO)2‐ProM2G‐(PPG)3‐NH2 [Entry 13] | 38.9 | 38.9 | 
Ac‐(PPG)5‐PRG‐PPG‐(HO)2‐ProM2G‐(PPG)3‐NH2 [Entry 11] | 37.9 | 37.9 | 
Ac‐(PPG)5‐PRG‐PPG‐(MeO)2‐ProM1G‐(PPG)3‐NH2 [Entry 7] | 43.6 | 43.6 | 
Ac‐(PPG)5‐PRG‐PPG‐(MeO)2‐ProM2G‐(PPG)3‐NH2 [Entry 12] | 40.2 | 40.2 | 
Ac‐(PPG)5‐PRG‐PPG‐HO‐ProM1G‐(PPG)3‐NH2 [Entry 5] | 43.0 | 43.0 | 
Ac‐(PPG)5‐PRG‐PPG‐ProHypG‐(PPG)3‐NH2 [Entry 2] |  | 49.8 | 
Ac‐(PPG)5‐PRG‐PPG‐ProM1G‐(PPG)3‐NH2 [Entry 3] |  | 39.3 | 
Ac‐ProM1‐OMe | 39.3 |  | T m of the corresponding CMPs [2]: 39.3 °C; ΔT m ([2]; in comparison to reference peptide Ac‐(PPG)5‐PRG‐(PPG)5‐NH2): −6 °C
